Like-named read-outs stand apart in the source and are kept apart here.
Tests used:
HIV = assay: microbe, parasite or virus in culture; assay type: cell-based, HIV-1; details: Human immunodeficiency virus 1
AIV = assay: microbe, parasite or virus in culture; assay type: cell-based, avian influenza virus (H5N1); details: Influenza A virus, read-out: EC50 (nM) AIV
VSV = assay: microbe, parasite or virus in culture; assay type: cell-based; details: Vesicular stomatitis virus, read-out: EC50 (nM) VSV
SARS-CoV-2 [1] = assay: microbe, parasite or virus in culture; details: for inhibition at 2 µM: Severe acute respiratory syndrome coronavirus 2, 48 h
[2] = Cytotoxicity evaluation using the SRB assay; details: human, triplicate
SARS-CoV-2 [3] = tested on: SARS-CoV-2
in vitro = details: human
[4] = read-out: EC50 (2000 nM) SARS-COV-2, % inhibitory effect at 2000 nM against SARS-CoV-2, triplicate
[5] = CC50 (nM) A549, Table 2, host A549 cells
[6] = CC50 (nM), Table 1, inhibition of cell growth of host A549 cells by 50%
[7] = A549 cells, CC50 (nM) A549, Table 2, host A549 cells
[8] = A549 cells, CC50 (nM), Table 1, inhibition of cell growth of host A549 cells by 50%
[9] = read-out: EC50 (2000 nM) SARS-COV-2

Compound	EC50 (HIV)	EC50 (AIV)	EC50 (VSV)	inhibition at 2 µM (SARS-CoV-2 [1]; [4])	CC50 at 2 days [2, 6]	CC50 at 2 days [2, 8]	CC50 at 2 days (in vitro; CC50 (nM))	inhibition at 2 µM (SARS-CoV-2 [1]; [9])	also measured
COc1cc2c(O[C@H]3OC[C@@]4(COC(C)=O)OC(c5ccccc5)O[C@@H]34)c3c(c(-c4ccc5c(c4)OCO5)c2cc1OC)C(=O)OC3 (stereo partly shown) [Compound 21]	126 nM	6.25 nM	12 nM	96.3%	328 nM				CC50 at 2 days [2, 5]: 93 nM
COc1cc2c(O[C@H]3OC[C@](O)(COC(C)=O)[C@H]3O)c3c(c(-c4ccc5c(c4)OCO5)c2cc1OC)C(=O)OC3 [Compound 23]	43.4 nM	0.3 nM	1.24 nM	96.7%	736 nM				CC50 at 2 days [2, 5]: 158 nM
COc1cc2c(O[C@H]3OC[C@@]4(CN=[N+]=[N-])OC(C)(C)O[C@@H]34)c3c(c(-c4ccc5c(c4)OCO5)c2cc1OC)C(=O)OC3 [Compound 25]	441 nM	0.72 nM	4.52 nM	> 80%		1650 nM			activity against SARS-CoV-2 (conclusion) (SARS-CoV-2 [3]): active molecules; CC50 at 2 days [2, 7]: 648 nM
COc1cc2c(O[C@H]3OC[C@@]4(CN)OC(C)(C)O[C@@H]34)c3c(c(-c4ccc5c(c4)OCO5)c2cc1OC)C(=O)OC3 [Compound 26]	917 nM	0.79 nM	0.58 nM	> 80%	4550 nM				activity against SARS-CoV-2 (conclusion) (SARS-CoV-2 [3]): active molecules; CC50 at 2 days [2, 5]: 2.66 nM
COc1cc2c(O[C@H]3OC[C@@]4(COC(=O)c5ccccc5)OC(C)(C)O[C@@H]34)c3c(c(-c4ccc5c(c4)OCO5)c2cc1OC)C(=O)OC3 [Compound 27]	384 nM	16.9 nM	20.8 nM				2220 nM	93%	activity against SARS-CoV-2 (conclusion) (SARS-CoV-2 [3]): active molecules; CC50 at 2 days (in vitro; CC50 (nM) A549): 379 nM
COc1cc2c(O[C@H]3OC[C@@]4(COC(=O)c5ccncc5)OC(C)(C)O[C@@H]34)c3c(c(-c4ccc5c(c4)OCO5)c2cc1OC)C(=O)OC3 [Compound 28]	486 nM	16.7 nM	56.1 nM				2210 nM	93%	CC50 at 2 days (in vitro; CC50 (nM) A549): 560 nM
COc1cc2c(O[C@H]3OC[C@@]4(COC(=O)c5cccnc5)OC(C)(C)O[C@@H]34)c3c(c(-c4ccc5c(c4)OCO5)c2cc1OC)C(=O)OC3 [Compound 29]	91.8 nM	8.66 nM	19.9 nM	95.6%		381 nM			CC50 at 2 days [2, 7]: 483 nM
COc1cc2c(O[C@H]3OC[C@@]4(CN5CCOCC5)OC(C)(C)O[C@@H]34)c3c(c(-c4ccc5c(c4)OCO5)c2cc1OC)C(=O)OC3 [Compound 30]	18 nM						1190 nM	92.7%	
COc1cc2c(O[C@H]3OC[C@@]4(CN(C)C)OC(C)(C)O[C@@H]34)c3c(c(-c4ccc5c(c4)OCO5)c2cc1OC)C(=O)OC3 [Compound 31]	177 nM			91.9%	1400 nM				
COc1cc2c(O[C@H]3OC[C@@]4(CNC(C)=O)OC(C)(C)O[C@@H]34)c3c(c(-c4ccc5c(c4)OCO5)c2cc1OC)C(=O)OC3 [Compound 32]	80.9 nM						441 nM	97.4%	activity against SARS-CoV-2 (conclusion) (SARS-CoV-2 [3]): active molecules
COc1cc2c(OC3OC[C@@]4(CO[Si](c5ccccc5)(c5ccccc5)C(C)(C)C)OC(c5ccccc5)O[C@@H]34)c3c(c(-c4cc5c(cc4OCc4ccccc4)OCO5)c2cc1OC)C(=O)OC3 (stereo partly shown) [Compound 42]	> 25000 nM					> 25000 nM			
COc1cc2c(O[C@@H]3OC[C@@]4(CO)OC(c5ccccc5)O[C@@H]34)c3c(c(-c4cc5c(cc4OCc4ccccc4)OCO5)c2cc1OC)C(=O)OC3 (stereo partly shown) [Compound 43]	> 25000 nM					> 25000 nM			
COc1cc2c(O[C@H]3OC[C@@]4(CO)OC(c5ccccc5)O[C@@H]34)c3c(c(-c4cc5c(cc4OCc4ccccc4)OCO5)c2cc1OC)C(=O)OC3 (stereo partly shown) [Compound 44]	> 25000 nM					> 25000 nM			
COc1cc2c(O)c3c(c(-c4ccc5c(c4)OCO5)c2cc1OC)C(=O)OC3 [Diphyllin (7), diphyllin, reference compound]	170 nM	2.36 nM	11.2 nM				2460 nM	94.6%	CC50 at 2 days (in vitro; CC50 (nM) A549): 1980 nM
Cc1ccnc2c1NC(=O)c1cccnc1N2C1CC1 [Nevirapine, reference compound]	35.8 nM				> 200 nM				
CCOC(=O)c1c(CSc2ccccc2)n(C)c2cc(Br)c(O)c(CN(C)C)c12 [arbidol, reference compound]									IC50 (SARS-CoV-2 [1]; Severe acute respiratory syndrome coronavirus 2, HepG2, read-out: IC50 against SARS-CoV-2 pseudovirion): 5230 nM

— patent publication US20240076299A1, “TUBERCULATIN ANALOGS AS ANTIVIRAL AGENTS” (priority 2020, published 2024)
